Measured values from patent publication US20250268844A1, “ANTICANCER AGENTS BASED ON CYCLOPENTENONES” (UNIVERSITY OF CRETE, priority 2022, published 2025).
“Also recorded” adds a separate entry of the source.

Key:
p53 [1] = assay: p53 immunoblot in A2780 cells; type: cell-based, human; conditions: 2.5 μM or increasing concentrations, 6 hrs or time course
Experimental: (§1) FIG. 8: Enones induce the p53 pathway. […] Cell lysates were analyzed for p53 and GAPDH (loading control). (B) A2780 cells were cultured in the presence or absence of 2.5 μM for the indicated time points before being analyzed for p53 and GAPDH levels. (C) Treatment of A2780 cells with 2.5 μM Enone-2 results in the up-regulation of p53-regulated genes (*p<0.05; **p<0.01; ***p<0.001, n=4). (D) Induction of p53 accumulation in AGE60 ovarian carcinoma cells following 6 or 14 hr exposure to 2.5 μM Enone-2. (E) Enone-1 induces the p53 pathway in A2780 cells which were cultured in the presence of 2.5 μM of the drug and analyzed as in (B). (F) Treatment of A2780 cells with 2.5 μM Enone-2 results in the up-regulation of p53-regulated genes (*p<0.05; **p<0.01; ***p<0.001, n=3).
(§2) The effects of Enone-2 on p53 and p53-dependent transcription of cell cycle and cell death-associated genes was confirmed by immunoblotting for p53 and by reverse transcription qPCR (RT-qPCR) for mdm2, p21, bax and bbc3/puma, established p53 target genes.

[2] = system: MR20 multiple myeloma cells; assay: MTT conversion assay, MR20; type: cell-based, human; conditions: Homo sapiens, Multiple myeloma cell, 48 hrs treatment
Experimental: (§3) In particular, Enone-1 and Enone-2 were tested for cytotoxic activity in 17 cell lines representing a broad spectrum of human tumors. They include human colorectal carcinoma (Caco2, RKO, HCT15, HT29), liver (HepG2), lung (A549), ovarian carcinoma (A2780, 2780CP, AGE60, SKOV3), anaplastic large cell lymphoma (Mac1 and Mac2a), breast carcinoma (MDA-MB-231), cervical (HeLa), bladder cancer (VM-CUB-1), melanoma (BRO), and multiple myeloma (MR20).
(§4) Each assay was performed in triplicate and repeated in 2-3 independent experiments. Specifically, to measure cell survival, 20 μl of 10 mg/ml MTT (3-([…])-2,5-diphenyl tetrazolium bromide; Sigma) was added to each well and the plates were incubated at 37° C. in 5% CO2 for 3 hours. The supernatant was removed and the formed crystals were dissolved in 200 μl dimethyl sulphoxide. The plates were then analysed at 450 nm on a plate reader. Growth inhibition (reduction in survival) was calculated by expressing the differences in optical densities between treatment wells and control wells as a percentage of the control.

γH2Ax = γH2Ax immunoblot (DNA damage response marker) in A2780 cells; type: cell-based, human; conditions: 6 hrs, increasing concentrations, relative to untreated controls
Experimental: (§5) FIG. 9. […] A2780 cells were cultured for 6 hrs in the presence of drug concentrations as indicated. (B) Effects of siRNA targeting RPL11 (siRPL11), Chek2 (siChek2) or the unrelated luciferase (Luci) genes on RPL11 and Chek2 mRNA levels quantified by RT-PCR. (C) Effects of siRpl11 on Enone-2 and oxaliplatin (OXA)-induced p53 activation. Expression levels relative to GAPDH are indicated; untreated controls (CNT) were given the arbitrary value of 1. […] Expression levels relative to GAPDH are indicated; untreated controls (CNT) were given the arbitrary value of 1.

[3] = system: HeLa cervical carcinoma cells; assay: MTT conversion assay, HeLa; type: cell-based, human; conditions: Homo sapiens, 48 hrs treatment
Experimental: as §3, §4

[4] = system: RKO colorectal carcinoma cells; assay: MTT conversion assay, RKO; type: cell-based, human; conditions: Homo sapiens, colon, 48 hrs treatment
Experimental: as §3, §4

[5] = system: HT29 colorectal carcinoma cells; assay: MTT conversion assay, HT29; type: cell-based, human; conditions: Homo sapiens, HT-29, HT29, colon, 48 hrs treatment
Experimental: as §3, §4

A549 lung cells = assay: MTT conversion assay, A549; type: cell-based, human; conditions: Homo sapiens, 48 hrs treatment
Experimental: as §3, §4

[6] = system: MB49 mouse bladder carcinoma cells; assay: MTT assay, MB49; type: cell-based; conditions: 48 hrs
Experimental: FIG. 5: Effects of enone compounds on mouse tumor growth.
as §4
First, the impact of Enone-1 and Enone-2 on the survival of MB49 cells was verified by MTT assays performed as described in FIG. 1.

p53 [7] = assay: siRNA knockdown of Chek2 or Rpl11 and drug-induced p53 activation in A2780 cells; type: cell-based, human; conditions: A2780 transiently transfected with siRNAs
Experimental: as §5
To further validate this observation, A2780 cells were transiently transfected with siRNAs targeting Chek2 which is required for DDR-induced p53, or Rpl11 which is required for RS-mediated p53 activation. The efficacy and specificity of the knockdowns were confirmed by RT-qPCR (FIG. 9B).

[8] = system: A2780 ovarian carcinoma cells; assay: MTT conversion assay, A2780; type: cell-based, human; conditions: Homo sapiens, 48 hrs treatment
Experimental: as §3, §4

[9] = system: VM-CUB-1 bladder cancer cells; assay: MTT conversion assay, VM-CUB-1; type: cell-based, human; conditions: Homo sapiens, 48 hrs treatment
Experimental: as §3, §4

p53 [10] = assay: p53 immunoblot in AGE60 cells; type: cell-based, human; conditions: 2.5 μM, 6 or 14 hr
Experimental: as §1, §2

[11] = system: A2780 ovarian carcinoma cells; assay: Clonogenic assay; type: cell-based, human; conditions: 12 hours treatment with 2.5 μM or 5.0 μM, colonies on day 10, compared with cis-platin
Excerpt: The long-term effects of Enone-2 on tumor cell survival were examined by using clonogenic assays which assess the ability of single cells to survive and reproduce to form colonies. […] The colonies formed on day 10 were visualized by staining with crystal violet following cell fixation and enumerated.

[12] = system: mdm2, p21, bax and bbc3/puma; assay: RT-qPCR of p53 target genes in A2780 cells; type: cell-based, human; conditions: 2.5 μM
Experimental: as §1, §2

[13] = system: 2780CP ovarian carcinoma cells; assay: Combination with bortezomib in 2780CP cells; type: cell-based, human; conditions: 2 hours bortezomib pre-treatment, then 48 hour co-culture with Enone-2
Experimental: The arrows in the microphotographs of (A) depict 2780CP cells with apoptotic morphology following treatment with 5 nM bortezomib in combination with 0.5 μM Enone-2.
Proteasome inhibitors have been reported to enhance platinum-induced toxicity in cis-platin-resistant ovarian cancer cells. […] To address this hypothesis, 2780CP ovarian carcinoma cells were pre-treated for 2 hours with different concentrations of the proteasomal inhibitor bortezomib, a drug in clinical use, followed by a 48 hour co-culture with Enone-2.

HepG2 liver cells = assay: MTT conversion assay, HepG2; type: cell-based, human; conditions: Homo sapiens, 48 hrs treatment
Experimental: as §3, §4

[14] = system: HCT15 colorectal carcinoma cells; assay: MTT conversion assay, HCT15; type: cell-based, human; conditions: Homo sapiens, HCT-15, HCT15, colon, 48 hrs treatment
Experimental: as §3, §4

C[C@@]1(O)C=CC(=O)[C@H]1c1ccc(F)c2ccccc12 (stereo in doubt) [Enone-2, 5-(4-fluoronaphthalen-1-yl)-4-hydroxy-4-methylcyclopent-2-en-1-one]
p53 accumulation (immunoblot) (p53 [1]): robust p53 accumulation; also recorded: robustly induced p53 accumulation | IC50 [2]: 100 nM | γH2Ax induction (marker of DDR) (γH2Ax): no effect relative to untreated controls | IC50 [3]: 6200 nM | IC50 [4]: 1200 nM | IC50 [5]: 900 nM | IC50 (A549 lung cells): 1500 nM | IC50 [6]: 600 nM | effect of Chek2 or Rpl11 siRNA knockdown on drug-induced p53 activation (p53 [7]): only Rpl11 knockdown that affected Enone-2 mediated p53 activation | IC50 [8]: 500 nM | IC50 [9]: 800 nM | p53 accumulation (immunoblot) (p53 [10]): robust p53 accumulation | number of colonies formed [11]: lower than the equivalent dose of cis-platin | mdm2, p21, bax and bbc3/puma mRNA (p53-dependent gene expression) [12]: time-dependent upregulation | cytotoxicity of combination with bortezomib compared to each agent alone [13]: augmentation of cytotoxicity compared to each agent alone; also recorded: higher cytotoxicity in relation to each agent alone | IC50 (HepG2 liver cells): 3000 nM | IC50 [14]: 900 nM
